In US20240140938A1, “PREPARATION OF TETRAHYDROINDAZOLE DERIVATIVES AS NOVEL DIACYLGLYCERIDE O-ACYLTRANSFERASE 2 INHIBITORS” (MERCK SHARP & DOHME LLC, priority 2020, published 2024):

Molecular target: human DGAT2 (hDGAT2) (Homo sapiens (Human), UniProt Q96PD7)
Assay: DGAT2 Enzymatic Activity Assay
Format: biochemical
Conditions: hDGAT2 Sf-9 membrane prep; 13C18-triolein product by LC/MS/MS; 25 μM diolein, 5 μM 13C oleoyl-CoA
Method: Sf-9 insect cells were maintained in Grace's insect cell culture medium with 10% heated-inactivated fetal bovine serum, 1% Pluronic F-68 and 0.14 μg/ml Kanamycine sulfate at 27° C. in a shaker incubator. After infection with untagged baculovirus expressing human DGAT2 (hDGAT2) at multiplicity of infection (MOI) 3 for 48 hours, cells were harvested. Cell pellets were suspended in buffer containing 10 mM Tris-HCl pH 7.5, 1 mM EDTA, 250 mM sucrose and Complete Protease Inhibitor Cocktail (Sigma Aldrich), and sonicated on ice. Cell debris were removed by centrifugation at 2000×g for 15 minutes. Membrane fractions were isolated by ultracentrifugation (100,000×g), resuspended in the same buffer, and frozen (−80° C.) for later use. The protein concentration was determined with the Pierce™ BCA Protein Assay Kit (Thermo Fisher Scientific).
LC/MS/MS analyses were performed using Thermal Fisher's LX4-TSQ Vantage system. This system consists of an Agilent binary high-performance liquid chromatography (HPLC) pump and a TSQ Vantage triple quadrupole MS/MS instrument. For each sample, 2 μL samples from the top organic layer of in-plate liquid-liquid extraction were injected onto a Thermo Betabasic C4 column (2.1 mm×20 mm, 5 μm particle size). The samples were then eluted using the following conditions; mobile phase: Isopropanol: acetonitrile/10 mM ammonium formate=50/35/15 (v/v/v), flow rate: 0.8 mL/min, temperature: 25° C. Data was acquired in positive mode using a heated electrospray ionization (HESI) interface. […] The peak area was integrated by Xcalibur Quan software. The ratio between the ^13C18triolein generated in the reaction and spiked in internal standard ^13C21-triolein was used to generate percentage inhibition and IC50 values. Compound percentage inhibition was calculated by the following formula: Inhibition %=1−[(compound response−low control)/(high control−low control)]×100%.
DGAT2 activity was determined by measuring the amount of enzymatic product ^13C18-triolein (^13C-1,2,3-Tri(cis-9-octadecenoyl)glycerol) using the membrane prep mentioned above. The assay was carried out in ABgene 384-well assay plates in a final volume of 25 μL at rt.

Chain of human DGAT2 (hDGAT2) (Q96PD7 whole entry): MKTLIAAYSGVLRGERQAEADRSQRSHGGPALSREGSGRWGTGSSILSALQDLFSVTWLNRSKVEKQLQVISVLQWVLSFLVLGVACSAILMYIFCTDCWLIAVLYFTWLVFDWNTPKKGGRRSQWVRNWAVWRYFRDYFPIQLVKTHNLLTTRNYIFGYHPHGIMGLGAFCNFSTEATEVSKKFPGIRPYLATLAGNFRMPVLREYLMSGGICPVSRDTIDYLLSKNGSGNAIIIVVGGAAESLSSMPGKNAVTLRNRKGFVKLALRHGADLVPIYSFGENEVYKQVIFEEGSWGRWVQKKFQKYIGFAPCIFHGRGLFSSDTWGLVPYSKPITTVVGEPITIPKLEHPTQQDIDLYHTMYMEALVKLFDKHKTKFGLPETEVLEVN

Row | SMILES | IC50 [nM]
1 | CC(C)n1nc(-c2cc(OCC(F)(F)F)ncc2F)c2c1C[C@H](C(=O)NC1(C)CS(=O)(=O)C1)CC2 [Example 43, (R)-3-(5-fluoro-2-(2,2,2-trifluoroethoxy)pyridin-4-yl)-1-isopropyl-N-(3-methyl-1,1-dioxidothietan-3-yl)-4,5,6,7-tetrahydro-1H-indazole-6-carboxamide] | 14.1
2 | CCOc1cc(F)c(F)c(-c2nn(C(C)C)c3c2CC[C@@H](C(=O)NC2(C)CS(=O)(=O)C2)C3)c1 [Example 87, (R)-3-(5-ethoxy-2,3-difluorophenyl)-1-isopropyl-N-(3-methyl-1,1-dioxidothietan-3-yl)-4,5,6,7-tetrahydro-1H-indazole-6-carboxamide] | 3.6
3 | Cn1nccc1-c1nn(-c2ccc(F)cn2)c2c1CC[C@@H](C(=O)N[C@@]1(C)CCS(=O)(=O)C1)C2 [Example 20, (R)-1-(5-fluoropyridin-2-yl)-N-((S)-3-methyl-1,1-dioxidotetrahydrothiophen-3-yl)-3-(1-methyl-1H-pyrazol-5-yl)-4,5,6,7-tetrahydro-1H-indazole-6-carboxamide] | 8430
4 | Cc1ncc(OC(F)F)cc1-c1nn(C(C)C)c2c1CC[C@@H](C(=O)NC1(C)CC(F)(F)C1)C2 [Example 89, (R)-N-(3,3-difluoro-1-methylcyclobutyl)-3-(5-(difluoromethoxy)-2-methylpyridin-3-yl)-1-isopropyl-4,5,6,7-tetrahydro-1H-indazole-6-carboxamide] | 318
5 | CC(C)n1nc(-c2cc(C(C)(F)F)ncc2F)c2c1C[C@H](C(=O)NC1(C)CCS(=O)(=O)CC1)CC2 [Example 92, (R)-3-(2-(1,1-difluoroethyl)-5-fluoropyridin-4-yl)-1-isopropyl-N-(4-methyl-1,1-dioxidotetrahydro-2H-thiopyran-4-yl)-4,5,6,7-tetrahydro-1H-indazole-6-carboxamide] | 1210
6 | N#CC1(NC(=O)[C@@H]2CCc3c(-c4cncc(OC(F)F)c4)nn(-c4ccc(F)cn4)c3C2)CCOC1 (single isomer, unassigned) [Example 15b] | 236
7 | CC1(NC(=O)[C@@H]2CCc3c(-c4cc(OC(F)F)ccc4F)nn(S(=O)(=O)C4CC4)c3C2)CS(=O)(=O)C1 [Example 116, (R)-1-(cyclopropylsulfonyl)-3-(5-(difluoromethoxy)-2-fluorophenyl)-N-(3-methyl-1,1-dioxidothietan-3-yl)-4,5,6,7-tetrahydro-1H-indazole-6-carboxamide] | 68.1
8 | CC(C)n1nc(-c2cc(C#N)ccc2F)c2c1C[C@H](C(=O)NC1(C)CS(=O)(=O)C1)CC2 [Example 101, (R)-3-(5-cyano-2-fluorophenyl)-1-isopropyl-N-(3-methyl-1,1-dioxidothietan-3-yl)-4,5,6,7-tetrahydro-1H-indazole-6-carboxamide] | > 10000
9 | CC(C)n1nc(-c2cc(OCC(F)(F)F)ncc2F)c2c1C[C@H](C(=O)NC1(C)CCS(=O)(=O)CC1)CC2 [Example 45, (R)-3-(5-fluoro-2-(2,2,2-trifluoroethoxy)pyridin-4-yl)-1-isopropyl-N-(4-methyl-1,1-dioxidotetrahydro-2H-thiopyran-4-yl)-4,5,6,7-tetrahydro-1H-indazole-6-carboxamide] | 18.4
10 | CC(C)n1nc(-c2cccc(OC(F)F)c2)c2c1C[C@H](C(=O)NCc1cccnc1)CC2 [Example 62, (R)-3-(3-(difluoromethoxy)phenyl)-1-isopropyl-N-(pyridin-3-ylmethyl)-4,5,6,7-tetrahydro-1H-indazole-6-carboxamide] | 8190
11 | CC(C)n1nc(-c2cc(OC(F)F)ccc2F)c2c1C[C@H](C(=O)NC1(C#N)CCS(=O)(=O)CC1)CC2 [Example 52, (R)-N-(4-cyano-1,1-dioxidotetrahydro-2H-thiopyran-4-yl)-3-(5-(difluoromethoxy)-2-fluorophenyl)-1-isopropyl-4,5,6,7-tetrahydro-1H-indazole-6-carboxamide] | 4.7
12 | C[C@]1(NC(=O)C2CCc3c(-c4cncc(OC(F)F)c4)nn(-c4nnc(C5CC5)s4)c3C2)CCS(=O)(=O)C1 (stereo partly drawn) [Example 5, 1-(5-cyclopropyl-1,3,4-thiadiazol-2-yl)-3-(5-(difluoromethoxy)pyridin-3-yl)-N-((S)-3-methyl-1,1-dioxidotetrahydrothiophen-3-yl)-4,5,6,7-tetrahydro-1H-indazole-6-carboxamide] | 542
13 | CC(C)n1nc(-c2cccc(OC(F)F)c2)c2c1C[C@H](C(=O)NC1(C)CCS(=O)(=O)CC1)CC2 [Example 31, (R)-3-(3-(difluoromethoxy)phenyl)-1-isopropyl-N-(4-methyl-1,1-dioxidotetrahydro-2H-thiopyran-4-yl)-4,5,6,7-tetrahydro-1H-indazole-6-carboxamide] | 24.7
14 | [2H]C([2H])([2H])C([2H])([2H])Oc1cc(-c2nn(C(C)C)c3c2CC[C@@H](C(=O)NC2(C)CCS(=O)(=O)CC2)C3)c(F)cn1 [Example 50, (R)-3-(2-(ethoxy-d5)-5-fluoropyridin-4-yl)-1-isopropyl-N-(4-methyl-1,1-dioxidotetrahydro-2H-thiopyran-4-yl)-4,5,6,7-tetrahydro-1H-indazole-6-carboxamide] | 51
15 | CC(C)n1nc(-c2cccc(OC3CC3)c2)c2c1C[C@H](C(=O)NC1(C)CCS(=O)(=O)CC1)CC2 [Example 32, (R)-3-(3-cyclopropoxyphenyl)-1-isopropyl-N-(4-methyl-1,1-dioxidotetrahydro-2H-thiopyran-4-yl)-4,5,6,7-tetrahydro-1H-indazole-6-carboxamide] | 29.1
16 | CCOc1cc(-c2nn(C(C)C)c3c2CC[C@@H](C(=O)NC2(C)CS(=O)(=O)C2)C3)c(F)cn1 [Example 34, (R)-3-(2-ethoxy-5-fluoropyridin-4-yl)-1-isopropyl-N-(3-methyl-1,1-dioxidothietan-3-yl)-4,5,6,7-tetrahydro-1H-indazole-6-carboxamide] | 117
17 | CC(n1nc(-c2cc(OC(F)F)ccc2F)c2c1C[C@H](C(=O)NC1(C)CS(=O)(=O)C1)CC2)C(C)(C)O (single isomer, unassigned) [Example 110b] | 243
18 | CC(C)(NC(=O)[C@@H]1CCc2c(-c3cccc(OC(F)F)c3)nn(C3CCOCC3)c2C1)c1ccc(C(F)(F)F)nc1 [Example 27, (R)-3-(3-(difluoromethoxy)phenyl)-1-(tetrahydro-2H-pyran-4-yl)-N-(2-(6-(trifluoromethyl)pyridin-3-yl)propan-2-yl)-4,5,6,7-tetrahydro-1H-indazole-6-carboxamide] | 128
19 | C[C@]1(NC(=O)[C@@H]2CCc3c(-c4cccc(OC(F)F)c4)nn(CC4CCOCC4)c3C2)CCS(=O)(=O)C1 [Example 78, (R)-3-(3-(difluoromethoxy)phenyl)-N-((S)-3-methyl-1,1-dioxidotetrahydrothiophen-3-yl)-1-((tetrahydro-2H-pyran-4-yl)methyl)-4,5,6,7-tetrahydro-1H-indazole-6-carboxamide] | > 10000
20 | CCOC(=O)N1CCC(C)(NC(=O)[C@@H]2CCc3c(-c4cc(OC(F)F)ccc4F)nn(C(C)C)c3C2)C1 (stereo partly drawn) [Example 59, ethyl 3-((R)-3-(5-(difluoromethoxy)-2-fluorophenyl)-1-isopropyl-4,5,6,7-tetrahydro-1H-indazole-6-carboxamido)-3-methylpyrrolidine-1-carboxylate] | 61
21 | CC(C(F)F)n1nc(-c2cc(OC(F)F)ccc2F)c2c1C[C@H](C(=O)NC1(C)CCS(=O)(=O)CC1)CC2 (single isomer, unassigned) [Example 49b] | 0.6
22 | CC(n1nc(-c2cc(OCC(F)(F)F)ncc2F)c2c1C[C@H](C(=O)N[C@@]1(C)CCS(=O)(=O)C1)CC2)C(C)(C)O (single isomer, unassigned) [Example 112a] | 11.3
23 | CC(C)n1nc(-c2cccc(OC(F)F)c2)c2c1CC(C(=O)NC1(C)CS(=O)(=O)C1)OC2 (single isomer, unassigned) [EX-134a, 3-(3-(difluoromethoxy)phenyl)-1-isopropyl-N-(3-methyl-1,1-dioxidothietan-3-yl)-1,4,6,7-tetrahydropyrano[4,3-c]pyrazole-6-carboxamide] | > 10000
24 | CC(C)Oc1cc(-c2nn(C(C)C)c3c2CC[C@@H](C(=O)NC2(C)CCS(=O)(=O)CC2)C3)c(F)cn1 [Example 38, (R)-3-(5-fluoro-2-isopropoxypyridin-4-yl)-1-isopropyl-N-(4-methyl-1,1-dioxidotetrahydro-2H-thiopyran-4-yl)-4,5,6,7-tetrahydro-1H-indazole-6-carboxamide] | 74.3
25 | CCC1(NC(=O)[C@@H]2CCc3c(-c4cccc(OC(F)F)c4)nn(C(C)C)c3C2)CS(=O)(=O)C1 [Example 69, (R)-3-(3-(difluoromethoxy)phenyl)-N-(3-ethyl-1,1-dioxidothietan-3-yl)-1-isopropyl-4,5,6,7-tetrahydro-1H-indazole-6-carboxamide] | 90
